IC50 data for 28 molecules are collected here from patent US9149475B2, “Protein kinase C inhibitors and uses thereof” (Rigel Pharmaceuticals, Inc., priority 2009, dated 2015).

The test system of one assay is Human primary T cells. Kind of assay: IL-2 ELISA, human primary T cell, anti-CD3+CD28+ (whole cell assay). In kind it is cell-based. Particulars: Homo sapiens, T-cell, 24 h, human primary T cells stimulated with anti-CD3 + anti-CD28, 24 hours. A digest of the protocol: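 IL-2 secreted over 24 h at 37° C was quantified by ELISA after plate-bound αCD3 (1 μg/ml) and αCD28 (5 μg/ml) stimulation, or PMA (0.5 ng/ml) with ionomycin (0.1 μM) as counter-screen. Cells were IL-2-starved primary human T cells, expanded from volunteer PBMC and exposed to compound for 1 hr beforehand.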
In the case of `CN1C(C)(C)CC(Nc2nc(Nc3ccc(OCCN4CCOCC4)c(C(F)(F)F)c3)ncc2F)CC1(C)C` [Compound I-119, N2-(4-(2-morpholinoethoxy)-3-(trifluoromethyl)phenyl)-5-fluoro-N4-(1,2,2,6,6-pentamethylpiperidin-4-yl)pyrimidine-2,4-diamine], the IC50 fell in the range of 0.25 to 0.5 µM. The same measure, in the same setting: as for `CN1C(C)(C)CC(Nc2nc(Nc3cc(F)c(OC4CCN(S(C)(=O)=O)CC4)c(F)c3)ncc2F)CC1(C)C` [III-78, N2-(3,5-difluoro-4-(1-(methylsulfonyl)piperidin-4-yloxy)phenyl)-5-fluoro-N4-(1,2,2,6,6-pentamethylpiperidin-4-yl)pyrimidine-2,4-diamine], the figure is 0.5 to 1 µM; as for `CC1(C)CC(Nc2nc(Nc3ccc(OC4CCCN(S(C)(=O)=O)CC4)c(OC(F)F)c3)ncc2F)CC(C)(C)N1` (stereo not shown) [III-90, N2-(3-(difluoromethoxy)-4-(1-(methylsulfonyl)azepan-4-yloxy)phenyl)-5-fluoro-N4-(2,2,6,6-tetramethylpiperidin-4-yl)pyrimidine-2,4-diamine], 0.5 to 1 µM. The same measure, in the same setting: as for `Cc1cc(Nc2ncc(F)c(NC3CC(C)(C)NC(C)(C)C3)n2)cc(-c2nnnn2C)c1` [III-132, 5-fluoro-N2-(3-methyl-5-(1-methyl-1H-tetrazol-5-yl)phenyl)-N4-(2,2,6,6-tetramethylpiperidin-4-yl)pyrimidine-2,4-diamine], the figure is 0.25 to 0.5 µM. For the molecule `CC(C)N1CCCC(Oc2ccc(Nc3ncc(F)c(NC4CC(C)(C)N(C)C(C)(C)C4)n3)cc2OC(F)F)CC1` (stereo not shown) [III-41, N2-(3-(difluoromethoxy)-4-(1-isopropylazepan-4-yloxy)phenyl)-5-fluoro-N4-(1,2,2,6,6-pentamethylpiperidin-4-yl)pyrimidine-2,4-diamine], the IC50 was less than 0.25 µM.

With `CC(C)N1CCC(Oc2ccc(Nc3ncc(F)c(NC4CC(C)(C)N(C)C(C)(C)C4)n3)cc2Cl)CC1` [III-95, N2-(3-chloro-4-(1-isopropylpiperidin-4-yloxy)phenyl)-5-fluoro-N4-(1,2,2,6,6-pentamethylpiperidin-4-yl)pyrimidine-2,4-diamine], the IC50 was less than 0.25 µM. `CN1C(C)(C)CC(Nc2nc(Nc3ccc(OCCN4CCCC4=O)c(OC(F)F)c3)ncc2F)CC1(C)C` [Compound I-31, 1-(2-(4-(4-(1,2,2,6,6-pentamethylpiperidin-4-ylamino)-5-fluoropyrimidin-2-ylamino)-2-(difluoromethoxy)phenoxy)ethyl)pyrrolidin-2-one]: the IC50 was less than 0.25 µM.

Turning to `CSc1nnnn1-c1cccc(Nc2ncc(F)c(NC3CC(C)N(C4CC4)C(C)C3)n2)c1` (stereo not shown) [III-10, N^4-(1-cyclopropyl-2,6-dimethylpiperidin-4-yl)-5-fluoro-N2-(3-(5-(methylthio)-1H-tetrazol-1-yl)phenyl)pyrimidine-2,4-diamine], the IC50 is 0.25 to 0.5 µM. Take `Cc1nnnn1-c1cc(Nc2ncc(F)c(NC3CC(C)(C)N(C)C(C)(C)C3)n2)cnc1O` [Compound I-112, 5-(4-(1,2,2,6,6-pentamethylpiperidin-4-ylamino)-5-fluoropyrimidin-2-ylamino)-3-(5-methyl-1H-tetrazol-1-yl)pyridin-2-ol]: the half-inhibitory concentration (IC50) is more than 1 µM. As for `CC(C)Oc1ncc(Nc2ncc(F)c(NC3CC(C)(C)NC(C)(C)C3)n2)cc1-c1nnnn1C1CC1` [Compound I-138, N2-(5-(1-cyclopropyl-1H-tetrazol-5-yl)-6-isopropoxypyridin-3-yl)-5-fluoro-N4-(2,2,6,6-tetramethylpiperidin-4-yl)pyrimidine-2,4-diamine], the IC50 fell in the range of 0.5 to 1 µM.

As to `CN1C(C)(C)CC(Nc2nc(Nc3cccc(-n4ccc(C(F)(F)F)n4)c3)ncc2F)CC1(C)C` [Compound I-2, 5-fluoro-N2-(3-(3-(trifluoromethyl)-1H-pyrazol-1-yl)phenyl)-N4-(1,2,2,6,6-pentamethylpiperidin-4-yl)pyrimidine-2,4-diamine], the half-inhibitory concentration (IC50) is more than 1 µM. In the case of `Cc1ccc(Nc2ncc(F)c(NC3CC(C)(C)N(C)C(C)(C)C3)n2)cc1-c1nnnn1C` [III-64, 5-fluoro-N2-(4-methyl-3-(1-methyl-1H-tetrazol-5-yl)phenyl)-N4-(1,2,2,6,6-pentamethylpiperidin-4-yl)pyrimidine-2,4-diamine], the IC50 is less than 0.25 µM.

As for `CC(C)N1CCC(Oc2ccc(Nc3ncc(F)c(NC4CC(C)(C)N(CC(F)(F)F)C(C)(C)C4)n3)cc2OC(F)F)CC1` [III-3, N2-(3-(Difluoromethoxy)-4-(1-isopropylpiperidin-4-yloxy)phenyl)-5-fluoro-N4-(2,2,6,6-tetramethyl-1-(2,2,2-trifluoroethyl)piperidin-4-yl)pyrimidine-2,4-diamine], the IC50 is more than 1 µM. For the molecule `CC1(C)CC(Nc2nc(Nc3ccc4c(c3)OCC(CN3CCOCC3)O4)ncc2F)CC(C)(C)N1` (stereo not shown) [II-8, 5-fluoro-N2-(2,3-dihydro-2-(morpholinomethyl)benzo[b][1,4]dioxin-6-yl)-N4-(2,2,6,6-tetramethylpiperidin-4-yl)pyrimidine-2,4-diamine], the IC50 was more than 1 µM. On to `CC(C)Oc1ccc(Nc2ncc(F)c(NC3CC(C)(C)N(C)C(C)(C)C3)n2)cc1-c1nnnn1C` [III-123, 5-fluoro-N2-(4-isopropoxy-3-(1-methyl-1H-tetrazol-5-yl)phenyl)-N4-(1,2,2,6,6-pentamethylpiperidin-4-yl)pyrimidine-2,4-diamine], for which the IC50 is less than 0.25 µM. On to `CC1(C)CC(Nc2nc(Nc3cc(F)c(OC4CCN(CCO)CC4)c(F)c3)ncc2F)CC(C)(C)N1` [III-59, 2-(4-(2,6-difluoro-4-(5-fluoro-4-(2,2,6,6-tetramethylpiperidin-4-ylamino)pyrimidin-2-ylamino)phenoxy)piperidin-1-yl)ethanol], for which the IC50 is more than 1 µM. On to `CC(C)N1CCC(Oc2ccc(Nc3ncc(F)c(NC4CC(C)(C)NC(C)(C)C4)n3)cc2F)CC1` [III-19, 5-fluoro-N2-(3-fluoro-4-(1-isopropylpiperidin-4-yloxy)phenyl)-N4-(2,2,6,6-tetramethylpiperidin-4-yl)pyrimidine-2,4-diamine], for which the IC50 was in the range of 0.25 to 0.5 µM. For the molecule `CC1(C)CC(Nc2nc(Nc3cc(F)c(OC4CCOCC4)c(F)c3)ncc2F)CC(C)(C)N1` [III-26, N2-(3,5-difluoro-4-(tetrahydro-2H-pyran-4-yloxy)phenyl)-5-fluoro-N4-(2,2,6,6-tetramethylpiperidin-4-yl)pyrimidine-2,4-diamine], the IC50 was in the range of 0.5 to 1 µM. As for `Cn1nnnc1-c1cc(Nc2ncc(F)c(NC3CC(C)(C)NC(C)(C)C3)n2)ccc1OC1COC1` [III-126, 5-fluoro-N2-(3-(1-methyl-1H-tetrazol-5-yl)-4-(oxetan-3-yloxy)phenyl)-N4-(2,2,6,6-tetramethylpiperidin-4-yl)pyrimidine-2,4-diamine], the IC50 was more than 1 µM.

As to `[2H]C([2H])([2H])N1C(C)(C)CC(Nc2nc(Nc3cccc(-n4nnnc4C)c3)ncc2F)CC1(C)C` [III-115, 5-fluoro-N2-(3-(5-methyl-1H-tetrazol-1-yl)phenyl)-N4-(1-trideuteromethyl-2,2,6,6-tetramethylpiperidin-4-yl)pyrimidine-2,4-diamine], the IC50 was less than 0.25 µM. With `CC(C)N1CC[C@@H](Oc2ccc(Nc3ncc(F)c(NC4CC(C)(C)N(C)C(C)(C)C4)n3)cc2OC(F)F)C1` [Compound I-147, N2-(4-((R)-1-isopropylpyrrolidin-3-yloxy)-3-(difluoromethoxy)phenyl)-5-fluoro-N4-(1,2,2,6,6-pentamethylpiperidin-4-yl)pyrimidine-2,4-diamine], the IC50 was less than 0.25 µM.

`Cc1nnnn1-c1cc(Nc2ncc(F)c(NC3CC(C)(C)NC(C)(C)C3)n2)ccc1OC1CCN(C(C)C)CC1` [III-2, 5-fluoro-N2-(4-(1-isopropylpiperidin-4-yloxy)-3-(5-methyl-1H-tetrazol-1-yl)phenyl)-N4-(2,2,6,6-tetramethylpiperidin-4-yl)pyrimidine-2,4-diamine]: the IC50 was more than 1 µM. Consider `CC1(C)CC(Nc2nc(Nc3ccc(OC4CCN(CC(F)(F)F)CC4)c(OC(F)F)c3)ncc2F)CC(C)(C)N1` [Compound I-144, N2-(4-(1-(2,2,2-trifluoroethyl)piperidin-4-yloxy)-3-(difluoromethoxy)phenyl)-5-fluoro-N4-(2,2,6,6-tetramethylpiperidin-4-yl)pyrimidine-2,4-diamine], for which the IC50 was 0.5 to 1 µM. With `CC1(C)CC(Nc2nc(Nc3ccc(OC4CCN(CCOCc5ccccc5)CC4)c(F)c3)ncc2F)CC(C)(C)N1` [III-53, N2-(4-(1-(2-(benzyloxy)ethyl)piperidin-4-yloxy)-3-fluorophenyl)-5-fluoro-N4-(2,2,6,6-tetramethylpiperidin-4-yl)pyrimidine-2,4-diamine], the IC50 fell in the range of 0.5 to 1 µM. As to `CN1C(C)(C)CC(Nc2nc(Nc3ccc(OC4CCN(Cc5ccccc5)CC4)c(OC(F)F)c3)ncc2F)CC1(C)C` [III-52, N2-(4-(1-benzylpiperidin-4-yloxy)-3-(difluoromethoxy)phenyl)-5-fluoro-N4-(1,2,2,6,6-pentamethylpiperidin-4-yl)pyrimidine-2,4-diamine], the IC50 was 0.25 to 0.5 µM. On to `CN1C(C)(C)CC(Nc2nc(Nc3ccc(OCCN4CCOCC4)c(OC(F)F)c3)ncc2F)CC1(C)C` [Compound I-121, N2-(4-(2-morpholinoethoxy)-3-(difluoromethoxy)phenyl)-5-fluoro-N4-(1,2,2,6,6-pentamethylpiperidin-4-yl)pyrimidine-2,4-diamine], for which the IC50 lay in the range of 0.5 to 1 µM.

The same assay, now with this note: human primary T cells stimulated with anti-CD3 + anti-CD28, 24 hours.
With `CC(C)N1CCC(Oc2ccc(Nc3ncc(F)c(NC4CC(C)(C)N(C)C(C)(C)C4)n3)cc2OC(F)F)C(F)C1` (stereo not shown) [III-105, N2-(3-(difluoromethoxy)-4-(3-fluoro-1-isopropylpiperidin-4-yloxy)phenyl)-5-fluoro-N4-(1,2,2,6,6-pentamethylpiperidin-4-yl)pyrimidine-2,4-diamine], the IC50 was less than 0.25 µM.

`CC1(C)CC(Nc2nc(Nc3cccc(-n4nnnc4SCC(F)(F)F)c3)ncc2F)CC(C)(C)N1` [Compound I-70, 5-fluoro-N4-(2,2,6,6-tetramethylpiperidin-4-yl)-N2-{3-[5-(2,2,2-trifluoroethyl)thio]-1H-tetrazol-1-yl}phenyl-2,4-pyrimidinediamine]: the IC50 was less than 0.25 µM.

Broadly, the IC50 is the midpoint of a concentration-inhibition curve.
